The values that follow are results of earlier work, collected in patent publication US20230285286A1, “DRUG VEHICLE COMPOSITIONS AND METHODS OF USE THEREOF” (PS Therapy, Inc., priority 2016, published 2023).

Structures can show the parent of a compound that is named as a salt.

For series [1] the following is noted: deionized water at 25° C.

As to `Nc1c(CC(=O)O)cccc1C(=O)c1ccc(Br)cc1` [Bromfenac], the “LogP Value” was 3.4. Also, in series [1], the “Solubility in Water (PPM)” value was 12 PPM.
Turning to `CC(C)Cc1ccc(C(C)C(=O)O)cc1` (centres unmarked) [Ibuprofen], in series [1], the “Solubility in Water (PPM)” value was 21 PPM.
With `CC(C)(C)NC[C@H](O)COc1nsnc1N1CCOCC1` [Timolol Maleate], the “Solubility in Water (PPM)” value in series [1] is reported as 5000 PPM.
Regarding `CCCc1c2oc(C(=O)O)cc(=O)c2cc2c(=O)cc(C(=O)O)n(CC)c12` [Nedocromil Sodium], the “LogP Value” is given as 2.82. Besides, in series [1], the “Solubility in Water (PPM)” value is reported as 80.8 PPM.
In the case of `O=C(c1ccccc1)c1ccc2n1CCC2C(=O)O` (centres unmarked) [Ketorolac Tromethamine], the “LogP Value” is -0.92. Moreover, the “Solubility in Water (PPM)” value in series [1] is 861 PPM.
Turning to `CC(=O)OCC(=O)[C@@]1(O)CC[C@H]2[C@@H]3CCC4=CC(=O)C=C[C@]4(C)[C@H]3[C@@H](O)C[C@@]21C` [Prednisolone Acetate], the “LogP Value” is on record as 1.332.
In the case of Polymyxin B, the “Solubility in Water (PPM)” value in series [1] is recorded as 0 PPM.
`N[C@@H]1CCCCN(c2c(F)cc3c(=O)c(C(=O)O)cn(C4CC4)c3c2Cl)C1` [Besifloxacin]: the “LogP Value” was 0.54. Moreover, in series [1], the “Solubility in Water (PPM)” value is given as 0 PPM.
As to `CN1CCCC(n2nc(Cc3ccc(Cl)cc3)c3ccccc3c2=O)CC1` (centres unmarked) [Azelastine HCl], the “LogP Value” is listed as 3.81. The “Solubility in Water (PPM)” value in series [1] was 35 PPM.
As to `CC(C)OC(=O)CCC/C=C\C[C@@H]1[C@@H](/C=C/C(F)(F)COc2ccccc2)[C@H](O)C[C@@H]1O` [Tafluprost], the “LogP Value” is given as 4.05. Moreover, in series [1], the “Solubility in Water (PPM)” value is recorded as 0 PPM.
As for `CC(C(=O)O)c1ccc(-c2ccccc2)c(F)c1` (centres unmarked) [Flurbiprofen], the “Solubility in Water (PPM)” value in series [1] was 5 PPM.
Consider `NC[C@H]1O[C@H](O[C@H]2[C@H](O)[C@@H](O[C@H]3O[C@H](CO)[C@@H](O)[C@H](N)[C@H]3O)[C@H](N)C[C@@H]2N)[C@H](N)C[C@@H]1O` [Tobramycin], for which the “LogP Value” is -5.8. Also, the “Solubility in Water (PPM)” value in series [1] is given as 10000 PPM.
For `CCN[C@H]1CN(CCCOC)S(=O)(=O)c2sc(S(N)(=O)=O)cc21` [Brinzolamide], the “LogP Value” is -1.8. The “Solubility in Water (PPM)” value in series [1] is 713 PPM.
For `CCOC(=O)O[C@]1(C(=O)OCCl)CC[C@H]2[C@@H]3CCC4=CC(=O)C=C[C@]4(C)[C@H]3[C@@H](O)C[C@@]21C` [Loteprednol Etabonate], the “LogP Value” is 3.4. For the same molecule, the “Solubility in Water (PPM)” value in series [1] is 0.5 PPM.
Consider `O=C(O)c1cc(=O)c2c(OCC(O)COc3cccc4oc(C(=O)O)cc(=O)c34)cccc2o1` [Cromolyn Sodium], for which the “LogP Value” is listed as 4.8. Besides, the “Solubility in Water (PPM)” value in series [1] is recorded as 100000 PPM.
On to `CCN[C@H]1C[C@H](C)S(=O)(=O)c2sc(S(N)(=O)=O)cc21` [Dorzolamide], for which the “LogP Value” is recorded as -1. The “Solubility in Water (PPM)” value in series [1] was 699 PPM.
For the molecule `CC(C)(C)NC[C@H](O)COc1cccc2c1CCCC2=O` [Levobunolol HCl], the “Solubility in Water (PPM)” value in series [1] was 251 PPM.
As for `CC(C)OC(=O)CCC/C=C\C[C@@H]1[C@@H](CC[C@@H](O)CCc2ccccc2)[C@H](O)C[C@@H]1O` [Latanoprost], the “Solubility in Water (PPM)” value in series [1] is listed as 1.29 PPM.
Consider Gentamicin, for which the “LogP Value” was -3.1.
Consider `NC(=O)Cc1cccc(C(=O)c2ccccc2)c1N` [Nepafenac], for which the “LogP Value” was 1.53. The “Solubility in Water (PPM)” value in series [1] is on record as 14 PPM.
In the case of `CCNC(=O)CCC/C=C\C[C@@H]1[C@@H](/C=C/[C@@H](O)CCc2ccccc2)[C@H](O)C[C@@H]1O` [Bimatoprost], the “LogP Value” is 3.2. The “Solubility in Water (PPM)” value in series [1] is on record as 19 PPM.
As for Gramicidin, the “Solubility in Water (PPM)” value in series [1] is recorded as 6 PPM.
For the molecule `CCC(=O)[C@@]1(C)[C@H](C)C[C@H]2[C@@H]3CCC4=CC(=O)C=C[C@]4(C)[C@H]3[C@@H](O)C[C@@]21C` [Rimexolone], the “LogP Value” is on record as 4.2. Besides, the “Solubility in Water (PPM)” value in series [1] was 0 PPM.
Turning to `CN1CCC(=C2c3ccccc3CC(=O)c3sccc32)CC1` [Ketotifen Fumarate], the “LogP Value” was 3.49. The “Solubility in Water (PPM)” value in series [1] is 7.87 PPM.
For `COc1cc(Cc2cnc(N)nc2N)cc(OC)c1OC` [Trimethoprim], in series [1], the “Solubility in Water (PPM)” value was 999 PPM.
`C=CC[C@@H]1/C=C(\C)C[C@H](C)C[C@H](OC)[C@H]2O[C@@](O)(C(=O)C(=O)N3CCCC[C@H]3C(=O)O[C@H](/C(C)=C/[C@@H]3CC[C@@H](O)[C@H](OC)C3)[C@H](C)[C@@H](O)CC1=O)[C@H](C)C[C@@H]2OC` [Tacrolimus]: the “LogP Value” is given as 5.59. In series [1], the “Solubility in Water (PPM)” value is 12 PPM.
With `COc1c(N2C[C@@H]3CCCN[C@@H]3C2)c(F)cc2c(=O)c(C(=O)O)cn(C3CC3)c12` [Moxifloxacin], the “Solubility in Water (PPM)” value in series [1] is recorded as 1146 PPM.
As for `CCCC(=O)O[C@]1(C(=O)COC(C)=O)CC[C@H]2[C@@H]3C[C@H](F)C4=CC(=O)C=C[C@]4(C)[C@@]3(F)[C@@H](O)C[C@@]21C` [Difluprednate], the “LogP Value” is 3.28. Moreover, the “Solubility in Water (PPM)” value in series [1] is recorded as 1 PPM.
For the molecule `N#Cc1cc(NC(=O)C(=O)O)c(Cl)c(NC(=O)C(=O)O)c1.NC(CO)(CO)CO.NC(CO)(CO)CO` [Lodoxamide Tromethamine], the “LogP Value” was 0.72. In addition, the “Solubility in Water (PPM)” value in series [1] is recorded as 36.1 PPM.
In the case of `CC[C@H]1OC(=O)[C@H](C)[C@@H](O[C@H]2C[C@@](C)(OC)[C@@H](O)[C@H](C)O2)[C@H](C)[C@@H](O[C@@H]2O[C@H](C)C[C@H](N(C)C)[C@H]2O)[C@](C)(O)C[C@@H](C)C(=O)[C@H](C)[C@@H](O)[C@]1(C)O` [Erythromycin], the “LogP Value” is reported as 2.6. Moreover, in series [1], the “Solubility in Water (PPM)” value is 2000 PPM.
With `Brc1c(NC2=NCCN2)ccc2nccnc12` [Brimonidine], the “Solubility in Water (PPM)” value in series [1] was 150 PPM.
`O=C(O)CCCN1CCC(O[C@@H](c2ccc(Cl)cc2)c2ccccn2)CC1.O=S(=O)(O)c1ccccc1` [Bepotastine Besilate]: the “Solubility in Water (PPM)” value in series [1] is given as 50 PPM.
On to `CN1CCC(=C2c3ccccc3CCn3c(C=O)cnc32)CC1` [Alcaftadine], for which the “LogP Value” was 3.2. The “Solubility in Water (PPM)” value in series [1] is on record as 17 PPM.
Take `CC[C@H]1OC(=O)[C@H](C)[C@@H](O[C@H]2C[C@@](C)(OC)[C@@H](O)[C@H](C)O2)[C@H](C)[C@@H](O[C@@H]2O[C@H](C)C[C@H](N(C)C)[C@H]2O)[C@](C)(O)C[C@@H](C)CN(C)[C@H](C)[C@@H](O)[C@]1(C)O` [Azithromycin]: the “LogP Value” is reported as 3.03. Besides, the “Solubility in Water (PPM)” value in series [1] is on record as 2.37 PPM.
On to `CN(C)CC/C=C1/c2ccccc2COc2ccc(CC(=O)O)cc21` [Olopatadine HCl], for which the “LogP Value” is listed as 3.4. In addition, in series [1], the “Solubility in Water (PPM)” value is on record as 31.3 PPM.
Regarding `CC(C)OC(=O)CCC/C=C\C[C@@H]1[C@@H](/C=C/[C@@H](O)COc2cccc(C(F)(F)F)c2)[C@H](O)C[C@@H]1O` [Travoprost], the “LogP Value” is recorded as 4.6. Moreover, the “Solubility in Water (PPM)” value in series [1] is 16000 PPM.
Consider `CC(C)NCC(O)COc1ccc(CCOCC2CC2)cc1` (centres unmarked) [Betaxolol HCl], for which the “LogP Value” is on record as 3. For the same molecule, the “Solubility in Water (PPM)” value in series [1] is 17190 PPM.
For the molecule `CC(=O)O[C@]1(C(C)=O)CC[C@H]2[C@@H]3C[C@H](C)C4=CC(=O)C=C[C@]4(C)[C@@]3(F)[C@@H](O)C[C@@]21C` [Fluorometholone Acetate], in series [1], the “Solubility in Water (PPM)” value is recorded as 6.27 PPM.
As to `NC1=NCC2c3ccccc3Cc3ccccc3N12` (centres unmarked) [Epinastine HCl], the “LogP Value” is given as 2.34.
With `CCOCCn1c(N2CCCN(C)CC2)nc2ccccc21` [Emedastine Difumarate], the “LogP Value” was 2.6. Moreover, in series [1], the “Solubility in Water (PPM)” value is listed as 1440 PPM.
